According to patent US10508077B2 (FORMA Therapeutics, Inc., priority 2015, dated 2019):

Target: T1, Full length human recombinant HDAC8 protein (Homo sapiens, UniProt Q9BY41)
T1 construct: Full length human recombinant HDAC8 protein was expressed in baculoviral system; made in house
T1 sequence (Q9BY41 1-377): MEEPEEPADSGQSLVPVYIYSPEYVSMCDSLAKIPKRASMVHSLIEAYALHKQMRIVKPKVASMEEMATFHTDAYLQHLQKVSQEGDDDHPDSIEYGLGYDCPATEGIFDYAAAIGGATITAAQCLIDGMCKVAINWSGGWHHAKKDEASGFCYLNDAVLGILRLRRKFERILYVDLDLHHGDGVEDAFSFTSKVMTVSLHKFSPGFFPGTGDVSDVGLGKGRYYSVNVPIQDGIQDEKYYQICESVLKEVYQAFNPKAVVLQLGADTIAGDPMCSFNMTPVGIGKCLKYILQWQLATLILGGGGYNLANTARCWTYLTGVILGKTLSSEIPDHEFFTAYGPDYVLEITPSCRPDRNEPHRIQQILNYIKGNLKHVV
Experiment: In vitro histone deacetylase assay: enzymatic HDAC8 assay, electrophoretic mobility shift
Assay type: biochemical
Conditions: substrate RHKK(Ac)-NH2, 1 nM enzyme, compounds listed under IC50 range headings
How it was run: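 Readout was microfluidic mobility-shift separation of deacetylated product from fluorescent RHKK(Ac)-NH2 substrate (2 µM), after reaction with 1 nM recombinant full-length human HDAC8 at 25 °C, pH 7.5, stopped with SDS. Twelve 3-fold-spaced concentrations tested; product/sum ratios normalized to controls and fitted with a 4-parameter model for IC50.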

Row | Structure (SMILES) | IC50
1 | O=C(/C=C/c1ccccc1N1CCC(NC(=O)CCC(F)(F)F)CC1)NO [Example I-130, (E)-4,4,4-trifluoro-N-(1-(2-(3-(hydroxyamino)-3-oxoprop-1-en-1-yl)phenyl)piperidin-4-yl)butanamide] | < 1000 nM
2 | CCSCC(=O)NC1CCN(c2ccccc2/C=C/C(=O)NO)CC1 [Example I-131] | < 1000 nM
3 | O=C(/C=C/c1ccccc1N1CCC(NC(=O)c2cccnc2)CC1)NO [Example I-132] | < 1000 nM
4 | CNc1ccc(C(=O)NC2CCN(c3ccccc3/C=C/C(=O)NO)CC2)cc1 [Example I-133, (E)-N-(1-(2-(3-(hydroxyamino)-3-oxoprop-1-en-1-yl)phenyl)piperidin-4-yl)-4-(methylamino)benzamide] | < 1000 nM
5 | CS(=O)(=O)N1CCC(CC(=O)NC2CCN(c3ccccc3/C=C/C(=O)NO)CC2)CC1 [Example I-135, (E)-N-hydroxy-3-(2-(4-(2-(1-(methylsulfonyl)piperidin-4-yl)acetamido)piperidin-1-yl)phenyl)acrylamide] | < 1000 nM
6 | CS(=O)(=O)CCCC(=O)NC1CCN(c2ccccc2/C=C/C(=O)NO)CC1 [Example I-136, (E)-N-(1-(2-(3-(hydroxyamino)-3-oxoprop-1-en-1-yl)phenyl)piperidin-4-yl)-4-(methylsulfonyl)butan-amide] | < 1000 nM
7 | O=C(/C=C/c1ccccc1N1CCC(NC(=O)CCN2CCCC2=O)CC1)NO [Example I-137, (E)-N-hydroxy-3-(2-(4-(3-(2-oxopyrrolidin-1-yl)propanamido)piperidin-1-yl)phenyl)acrylamide] | < 1000 nM
8 | O=C(/C=C/c1ccccc1N1CCC(NC(=O)CN2CCS(=O)(=O)CC2)CC1)NO [Example I-138, (E)-3-(2-(4-(2-(1,1-dioxidothiomorpholino)acetamido)piperidin-1-yl)phenyl)-N-hydroxyacrylamide] | < 1000 nM
9 | COc1cc(CC(=O)NC2CCN(c3ccccc3/C=C/C(=O)NO)CC2)ccc1O [Example I-139, (E)-N-hydroxy-3-(2-(4-(2-(4-hydroxy-3-methoxyphenyl)acetami-do)piperidin-1-yl)phenyl)acrylamide] | < 1000 nM
10 | O=C(/C=C/c1ccccc1N1CCC(NC(=O)C2Cc3ccccc3C2)CC1)NO [Example I-140, (E)-N-(1-(2-(3-(hydroxyamino)-3-oxoprop-1-en-1-yl)phenyl)piperidin-4-yl)-2,3-dihydro-1H-indene-2-carboxamide] | < 1000 nM
11 | Cc1ccccc1Oc1ncccc1C(=O)NC1CCN(c2ccccc2/C=C/C(=O)NO)CC1 [Example I-141, (E)-N-(1-(2-(3-(hydroxyamino)-3-oxoprop-1-en-1-yl)phenyl)piperdin-4-yl)-2-(o-tolyloxy)nicotinamide] | < 1000 nM
12 | O=C(/C=C/c1ccccc1N1CCC(NC(=O)C2CCC(F)(F)CC2)CC1)NO [Example I-142, (E)-4,4-difluoro-N-(1-(2-(3-(hydroxyamino)-3-oxoprop-1-en-1-yl)phenyl)piperidin-4-yl)cyclohexane-1-carboxamide] | < 1000 nM
13 | CC1(CCC(=O)NC2CCN(c3ccccc3/C=C/C(=O)NO)CC2)CC1 [Example I-143, (E)-N-hydroxy-3-(2-(4-(3-(1-methylcyclopropyl)propan-amido)piperidin-1-yl)phenyl)acrylamide] | < 1000 nM
14 | CN(CC(=O)NC1CCN(c2ccccc2/C=C/C(=O)NO)CC1)S(C)(=O)=O [Example I-144, (E)-N-hydroxy-3-(2-(4-(2-(N-methylmethylsulfonamido)acetamido)piperidin-1-yl)phenyl)acrylamide] | < 1000 nM
15 | O=C(/C=C/c1ccccc1N1CCC(NC(=O)c2cnn3c2OCCC3)CC1)NO [Example I-145, (E)-N-(1-(2-(3-(hydroxyamino)-3-oxoprop-1-en-1-yl)phenyl)piperidin-4-yl)-6,7-dihydro-5H-pyrazolo[5,1-b][1,3]oxazine-3-carboxamide] | < 1000 nM
16 | O=C(/C=C/c1ccccc1N1CCC(NC(=O)CC23CCCN2CCC3)CC1)NO [Example I-146] | < 1000 nM
17 | O=C(/C=C/c1ccccc1N1CCC(NC(=O)c2ccc3cnccc3n2)CC1)NO [Example I-147, (E)-N-(1-(2-(3-(hydroxyamino)-3-oxoprop-1-en-1-yl)phenyl)piperidin-4-yl)-1,6-naphthyridine-2-carboxamide] | < 1000 nM
18 | O=C(/C=C/c1ccccc1N1CCC(NC(=O)C2CC(F)(F)C2)CC1)NO [Example I-149, (E)-3,3-difluoro-N-(1-(2-(3-(hydroxyamino)-3-oxoprop-1-en-1-yl)phenyl)piperidin-4-yl)cyclobutane-1-carboxamide] | < 1000 nM
19 | O=C(/C=C/c1ccccc1N1CCC(NC(=O)CC2CC2)CC1)NO [Example I-150] | < 1000 nM
20 | O=C(/C=C/c1ccccc1N1CCC(NC(=O)CC2CCS(=O)(=O)CC2)CC1)NO [Example I-151, (E)-3-(2-(4-(2-(1,1-dioxidotetrahydro-2H-thiopyran-4-yl)acetamido)piperidin-1-yl)phenyl)-N-hydroxyacrylamide] | < 1000 nM

Row | Structure (SMILES) | IC50
21 | O=C(/C=C/c1ccccc1N1CCC(NC(=O)CSc2ccccc2)CC1)NO [Example I-152, (E)-N-hydroxy-3-(2-(4-(2-(phenylthio)acetamido)piperidin-1-yl)phenyl)acrylamide] | < 1000 nM
22 | CC(C)c1ccc(C(=O)NC2CCN(c3ccccc3/C=C/C(=O)NO)CC2)nc1 [Example I-154, (E)-N-(1-(2-(3-(hydroxyamino)-3-oxoprop-1-en-1-yl)phenyl)piperidin-4-yl)-5-isopropylpicolinamide] | < 1000 nM
23 | O=C(/C=C/c1ccccc1N1CCC(NC(=O)c2cc3ccccc3[nH]2)CC1)NO [Example I-155] | < 1000 nM
24 | CSc1ccc(CC(=O)NC2CCN(c3ccccc3/C=C/C(=O)NO)CC2)cc1 [Example I-156] | < 1000 nM
25 | CC(C)CCC(=O)NC1CCN(c2ccccc2/C=C/C(=O)NO)CC1 [Example I-157, (E)-N-(1-(2-(3-(hydroxyamino)-3-oxoprop-1-en-1-yl)phenyl)piperidin-4-yl)-4-methylpentanamide] | < 1000 nM
26 | Cc1nc(CC(=O)NC2CCN(c3ccccc3/C=C/C(=O)NO)CC2)c(C)s1 [Example I-158, (E)-3-(2-(4-(2-(2,5-dimethylthiazol-4-yl)acetamido)piperidin-1-yl)phenyl)-N-hydroxyacrylamide] | < 1000 nM
27 | O=C(/C=C/c1ccccc1N1CCC(NC(=O)c2ccoc2)CC1)NO [Example I-159] | < 1000 nM
28 | O=C(/C=C/c1ccccc1N1CCC(NC(=O)c2ccc(-n3cccc3)nc2)CC1)NO [Example I-160] | < 1000 nM
29 | O=C(/C=C/c1ccccc1N1CCC(NC(=O)c2ccc3[nH]nnc3c2)CC1)NO [Example I-161] | < 1000 nM
30 | CN(C)Cc1ccccc1CN1CCN(c2ccccc2/C=C/C(=O)NO)CC1 [Example I-162, (E)-3-(2-(4-(2-((dimethylamino)methyl)benzyl)piperazin-1-yl)phenyl)-N-hydroxyacrylamide] | < 1000 nM
31 | O=C(/C=C/c1ccccc1N1CCN(Cc2ccc(F)cc2)CC1)NO [Example I-163, (E)-3-(2-(4-(4-fluorobenzyl)piperazin-1-yl)phenyl)-N-hydroxyacrylamide] | < 1000 nM
32 | O=C(/C=C/c1ccccc1N1CCN(Cc2ccccc2F)CC1)NO [Example I-164, (E)-3-(2-(4-(2-fluorobenzyl)piperazin-1-yl)phenyl)-N-hydroxyacrylamide] | < 1000 nM
33 | O=C(/C=C/c1ccccc1N1CCN(Cc2ccc(C(F)(F)F)nc2)CC1)NO [Example I-165, (E)-N-hydroxy-3-(2-(4-((6-(trifluoromethyl)pyridin-3-yl)methyl)piperazin-1-yl)phenyl)acrylamide] | < 1000 nM
34 | O=C(/C=C/c1ccccc1N1CCN(CCCc2ccccc2)CC1)NO [Example I-166, (E)-N-hydroxy-3-(2-(4-(3-phenylpropyl)piperazin-1-yl)phenyl)acrylamide] | < 1000 nM
35 | O=C(/C=C/c1ccccc1N1CCN(CC2CCOC2)CC1)NO (stereo not shown) [Example I-167, (E)-N-hydroxy-3-(2-(4-((tetrahydrofuran-3-yl)methyl)piperazin-1-yl)phenyl)acrylamide] | < 1000 nM
36 | O=C(/C=C/c1ccccc1N1CCN(Cc2ccccn2)CC1)NO [Example I-168, (E)-N-hydroxy-3-(2-(4-(pyridin-2-ylmethyl)piperazin-1-yl)phenyl)acrylamide] | < 1000 nM
37 | COc1cncc(CN2CCN(c3ccccc3/C=C/C(=O)NO)CC2)c1 [Example I-169, (E)-N-hydroxy-3-(2-(4-((5-methoxypyridin-3-yl)methyl)piperazin-1-yl)phenyl)acrylamide] | < 1000 nM
38 | O=C(/C=C/c1ccccc1N1CCN(Cc2cccc(C(F)(F)F)c2)CC1)NO [Example I-171, (E)-N-hydroxy-3-(2-(4-(3-(trifluoromethyl)benzyl)piperazin-1-yl)phenyl)acrylamide] | < 1000 nM
39 | COc1ccc(CN2CCN(c3ccccc3/C=C/C(=O)NO)CC2)cc1 [Example I-172, (E)-N-hydroxy-3-(2-(4-(4-methoxybenzyl)piperazin-1-yl)phenyl)acrylamide] | < 1000 nM
40 | O=C(/C=C/c1ccccc1N1CCN(Cc2ccc3c(c2)OC(F)(F)O3)CC1)NO [Example I-173, (E)-3-(2-(4-((2,2-difluorobenzo[d][1,3]dioxol-5-yl)methyl)piperazin-1-yl)phenyl)-N-hydroxyacrylamide] | < 1000 nM
